According to US20260137697A1, “THIAZOLO[5,4-D]PYRIMIDINE COMPOUNDS, COMPOSITIONS COMPRISING THEM AND USES THEREOF” (University de Montreal, priority 2022, published 2026):

target: T1, ARAF (Homo sapiens, UniProt P10398); test: ARAF kinase activity assay (AlphaLISA p-MEK 1/2); type: biochemical; conditions: Table A; 10 μM ATP, kinase-dead MEK1 substrate
T1 construct: ARAF kinase reactions were rigorously the same with the exception that kinase concentration was raised to 3.75 nM (cat. No. 1768-0000-1; Reaction Biology)
T1 sequence (P10398 303-606 limits assumed): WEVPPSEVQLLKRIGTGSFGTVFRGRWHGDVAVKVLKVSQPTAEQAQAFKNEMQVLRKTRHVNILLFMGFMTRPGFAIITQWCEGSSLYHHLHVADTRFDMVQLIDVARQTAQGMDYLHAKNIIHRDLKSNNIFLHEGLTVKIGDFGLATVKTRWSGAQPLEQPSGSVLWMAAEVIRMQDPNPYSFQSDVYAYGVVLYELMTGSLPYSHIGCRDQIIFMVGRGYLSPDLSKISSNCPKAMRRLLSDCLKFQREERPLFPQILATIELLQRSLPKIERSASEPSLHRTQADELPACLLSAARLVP
Method: Compound preparation: solid samples of each substance in 1dram vials were suspended in DMSO (Fisher Scientific) at a stock concentration of 20 mM. Stocks were kept at −20° C. and protected from light. If solubility of the compound at 20 mM appeared to be an issue, the initial concentration of the DMSO stock was changed to 10 mM or 5 mM.
In vitro enzymatic reactions were used for evaluating compounds intrinsic activity against BRAF, CRAF and ARAF. For BRAF and CRAF, 0.375 nM of purified GST-tagged kinases (cat. No. B4062-10UG and cat. No. R1656-10UG respectively from Millipore Sigma) were incubated with 75 nM of kinase-dead MEK1 substrate (cat. No. 40075; BPS Bioscience) in the presence of 10 μM of Ultrapure ATP (cat. No. V9102; Promega; part V915A) with and without the test compound in a buffer containing 50 mM HEPES pH 7.5, 10 mM MgCl2, 1 mM EDTA, 0.01% Brij-35 and 2 mM DTT. Separate reactions were performed with the MEK1 substrate and ATP as a blank control. ARAF kinase reactions were rigorously the same with the exception that kinase concentration was raised to 3.75 nM (cat. No. 1768-0000-1; Reaction Biology).
For compound treatment, 5 μL/well of test substance solution are placed in a 384-well proxyplate (Perkin Elmer) and mixed with 2× concentrated kinase reactions. The dilution series is selected so that nine concentrations cover a range from 100 nM to 0.01 nM. […] The final concentration of DMSO in the assay is set at 0.05%.
ARAF kinase reactions were carried out for a total of 2 hours at 30° C. and then stopped by addition of EDTA at a final concentration of 40 mM. Reactions were then detected using the AlphaLISA® SureFire® Ultra™ p-MEK 1/2 (Ser218/222) (PerkinElmer) kit. Reactions were performed with 5 μL of kinase reaction according to the manufacturer's specifications in 384-well proxyplates (Perkin Elmer) followed by overnight incubation of the AlphaLISA® reactions at room temperature in a humidified chamber. After completion of the detection reactions, the signals were recorded on a Synergy Neo2 plate reader (Biotek) equipped with AlphaLISA® filters. The effect of each compound dilution on the pMEK signal generated by ARAF reactions was expressed in % inhibition and calculated as follows. An internal 100% inhibition control (average of luminescence in kinase reactions comprising kinase dead MEK1 substrate alone) was included in each plate to measure of pMEK background and was subtracted from each data point. The average of DMSO (vehicle) controls (set as 0% inhibition) was also established and used to calculate % inhibition:
IC50 values were obtained by plotting the kinase inhibition values and fitting the dose-activity curves using a log(agonist) versus response—variable slope (four parameters) function using either GraphPadPrism (V7.0) or Dotmatics Screening Ultra platform. Standards included in the ARAF kinase assay were Belvarafenib (MedChem Express cat. No. HY-109080; CAS No. 1446113-23-0), LXH254 (MedChem Express cat. No. HY-112089; CAS No. 1800398-38-2) and BGB283 (cat. No. HY-18957; CAS No. 1446090-79-4).

| IC50 | SMILES |
| --- | --- |
| 1 to 10 nM | N#CC1(c2cccc3c2ncn3-c2nc3c(Nc4c(F)ccc(NS(=O)(=O)c5cccc(Cl)c5Cl)c4F)ncnc3s2)CC1 [Example 122] |
| > 10 nM | Cc1ccc2c(Nc3cccc(Cl)c3F)nccc2c1NC(=O)c1csc2c(N)ncnc12 [Belvarafenib, reference compound] |
| 1 to 10 nM | Cc1c(F)cccc1S(=O)(=O)Nc1ccc(F)c(Nc2ncnc3sc(-n4cc(C(=O)N5C6CCC5CN(C)C6)c5ccccc54)nc23)c1F [Example 44] |
